Read-outs that look alike come from different tables or passages of the source.
Target: T1, androgen receptor (Homo sapiens, UniProt P10275, T878A)
T1 construct: Several compounds were selected and serial diluted (10×) with RPMI medium for treating LNCaP.FGC cells; host or cells: LNCaP.FGC
Assay: Androgen receptor degradation assay using Western blot analysis in LNCaP.FGC cells
Assay type: cell-based
Description: The internal loading control GAPDH was detected using a mouse monoclonal antibody (1:5000) (GTX627408, GeneTex International Corp., HsinChu City, Taiwan R.O.C.) and a goat anti-mouse HRP-conjugated secondary antibody (1:5000 dilution) (C04001, Croyez Bioscience Co., Ltd., Taipei City, Taiwan R.O.C.).
Several compounds were selected and serial diluted (10×) with RPMI medium for treating LNCaP.FGC cells. A calibration curve was determined by the serial diluted samples for each compound, and the concentration needed for 50% AR degradation (AR DC50) for each compound was calculated.

[1] = concentration needed for 50% AR degradation, 24 hr treatment, read-out: AR DC50
[2] = read-out: AR DC50, concentration needed for 50% AR degradation, 24 hr treatment

T1 sequence (P10275 whole entry T878A): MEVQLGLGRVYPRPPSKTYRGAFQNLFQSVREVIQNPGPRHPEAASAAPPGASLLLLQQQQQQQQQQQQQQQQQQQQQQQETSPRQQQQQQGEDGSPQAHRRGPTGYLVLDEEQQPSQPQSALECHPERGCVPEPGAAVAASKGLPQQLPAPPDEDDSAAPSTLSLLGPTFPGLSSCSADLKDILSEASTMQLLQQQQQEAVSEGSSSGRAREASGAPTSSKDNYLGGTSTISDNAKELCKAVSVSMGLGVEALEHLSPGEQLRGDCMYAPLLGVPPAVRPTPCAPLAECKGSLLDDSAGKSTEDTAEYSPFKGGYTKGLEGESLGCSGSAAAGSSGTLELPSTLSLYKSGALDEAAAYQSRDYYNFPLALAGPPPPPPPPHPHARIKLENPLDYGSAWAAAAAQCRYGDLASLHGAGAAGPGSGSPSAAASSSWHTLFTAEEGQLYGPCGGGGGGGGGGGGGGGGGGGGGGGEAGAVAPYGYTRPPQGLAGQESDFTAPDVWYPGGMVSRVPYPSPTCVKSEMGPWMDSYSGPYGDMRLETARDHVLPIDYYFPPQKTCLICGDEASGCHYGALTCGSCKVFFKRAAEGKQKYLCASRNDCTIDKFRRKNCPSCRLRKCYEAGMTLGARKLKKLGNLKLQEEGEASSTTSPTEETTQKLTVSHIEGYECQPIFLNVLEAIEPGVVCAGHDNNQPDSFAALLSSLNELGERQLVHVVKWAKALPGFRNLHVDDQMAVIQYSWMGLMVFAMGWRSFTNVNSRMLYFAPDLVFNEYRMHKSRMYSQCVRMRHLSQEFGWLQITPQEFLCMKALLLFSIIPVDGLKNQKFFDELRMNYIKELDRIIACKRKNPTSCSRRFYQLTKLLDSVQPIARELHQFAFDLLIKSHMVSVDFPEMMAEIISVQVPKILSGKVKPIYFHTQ
T1 sequence (Q96SW2 whole entry partner): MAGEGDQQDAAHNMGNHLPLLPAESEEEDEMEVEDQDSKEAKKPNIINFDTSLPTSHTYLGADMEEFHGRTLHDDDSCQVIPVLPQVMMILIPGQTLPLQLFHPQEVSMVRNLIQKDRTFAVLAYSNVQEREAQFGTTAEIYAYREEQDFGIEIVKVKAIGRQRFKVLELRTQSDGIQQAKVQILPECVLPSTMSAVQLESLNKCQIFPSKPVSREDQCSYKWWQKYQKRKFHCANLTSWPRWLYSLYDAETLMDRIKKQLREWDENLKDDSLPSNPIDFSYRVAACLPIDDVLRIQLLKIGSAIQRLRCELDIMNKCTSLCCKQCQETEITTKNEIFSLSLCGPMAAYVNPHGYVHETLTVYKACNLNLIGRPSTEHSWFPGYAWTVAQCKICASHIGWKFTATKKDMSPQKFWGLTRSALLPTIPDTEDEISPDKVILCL

Row | DC50 [1] | SMILES | DC50 [2]
1 | < 10 nM | Cn1c2c(c3ccc(N4CCN(CC5CN(c6ccc(C(=O)N[C@H]7CC[C@H](Oc8ccc(C#N)c(Cl)c8)CC7)nn6)C5)CC4)cc31)C(=O)N(C1CCC(=O)NC1=O)C2=O (stereo partly shown) [Compound 1] | –
2 | < 10 nM | Cn1c2c(c3ccc(C4CCN(CC5CN(c6ccc(C(=O)N[C@H]7CC[C@H](Oc8ccc(C#N)c(Cl)c8)CC7)nn6)C5)CC4)cc31)C(=O)N(C1CCC(=O)NC1=O)C2=O (stereo partly shown) [Compound 2] | –
3 | – | CCn1c2c(c3ccc(N4CCN(CC5CN(c6ccc(C(=O)N[C@H]7CC[C@H](Oc8ccc(C#N)c(Cl)c8)CC7)nn6)C5)CC4)cc31)C(=O)N(C1CCC(=O)NC1=O)C2=O (stereo partly shown) [Compound 3] | < 10 nM
4 | – | CCn1c2c(c3ccc(N4CCN(CC5CCN(c6ccc(C(=O)N[C@H]7CC[C@H](Oc8ccc(C#N)c(Cl)c8)CC7)cn6)CC5)CC4)cc31)C(=O)N(C1CCC(=O)NC1=O)C2=O (stereo partly shown) [Compound 4] | 25 to 100 nM
5 | – | CCn1c2c(c3ccc(N4CCN(CC5CCN(c6ccc(C(=O)N[C@H]7CC[C@@H](Oc8ccc(C#N)c(Cl)c8)CC7)cn6)CC5)CC4)cc31)C(=O)N(C1CCC(=O)NC1=O)C2=O (stereo partly shown) [Compound 5] | 25 to 100 nM
6 | – | CCn1c2c(c3ccc(N4CCN(CC5CCN(c6ccc(C(=O)N[C@H]7C(C)(C)[C@H](Oc8ccc(C#N)c(Cl)c8)C7(C)C)cn6)CC5)CC4)cc31)C(=O)N(C1CCC(=O)NC1=O)C2=O (stereo partly shown) [Compound 6] | 25 to 100 nM
7 | – | CCn1c2c(c3ccc(N4CCN(CC5CCN(c6ccc(C(=O)N[C@H]7C(C)(C)[C@@H](Oc8ccc(C#N)c(Cl)c8)C7(C)C)cn6)CC5)CC4)cc31)C(=O)N(C1CCC(=O)NC1=O)C2=O (stereo partly shown) [Compound 7] | 25 to 100 nM
8 | – | CCn1c2c(c3ccc(N4CCN(CC5CCN(c6ccc(C(=O)N[C@H]7C(C)(C)[C@H](Oc8ccc(C#N)c(Cl)c8)C7(C)C)nn6)CC5)CC4)cc31)C(=O)N(C1CCC(=O)NC1=O)C2=O (stereo partly shown) [Compound 8] | 25 to 100 nM
9 | – | CCn1c2c(c3ccc(N4CCN(CC5CCN(c6ccc(C(=O)N[C@H]7C(C)(C)[C@@H](Oc8ccc(C#N)c(Cl)c8)C7(C)C)nn6)CC5)CC4)cc31)C(=O)N(C1CCC(=O)NC1=O)C2=O (stereo partly shown) [Compound 9] | 25 to 100 nM
10 | – | CCn1c2c(c3ccc(C4CCN(CC5CN(c6ccc(C(=O)N[C@H]7CC[C@H](Oc8ccc(C#N)c(Cl)c8)CC7)nn6)C5)CC4)cc31)C(=O)N(C1CCC(=O)NC1=O)C2=O (stereo partly shown) [Compound 10] | < 10 nM
11 | – | CCn1c2c(c3ccc(C4CCN(CC5CCN(c6ccc(C(=O)N[C@H]7CC[C@H](Oc8ccc(C#N)c(Cl)c8)CC7)nn6)CC5)CC4)cc31)C(=O)N(C1CCC(=O)NC1=O)C2=O (stereo partly shown) [Compound 11] | < 10 nM
12 | – | CCn1c2c(c3ccc(C4CCN(CC5CCN(c6ccc(C(=O)N[C@H]7CC[C@@H](Oc8ccc(C#N)c(Cl)c8)CC7)nn6)CC5)CC4)cc31)C(=O)N(C1CCC(=O)NC1=O)C2=O (stereo partly shown) [Compound 12] | 10 to 25 nM
13 | – | CCn1c2c(c3ccc(N4CCN(CC5CCN(c6ccc(C(=O)N[C@H]7C(C)(C)[C@H](Oc8ccc(C#N)c(Cl)c8)C7(C)C)cc6)CC5)CC4)cc31)C(=O)N(C1CCC(=O)NC1=O)C2=O (stereo partly shown) [Compound 15] | 25 to 100 nM
14 | – | CCn1c2c(c3ccc(N4CCN(CC5CCN(c6ccc(C(=O)N[C@H]7C(C)(C)[C@@H](Oc8ccc(C#N)c(Cl)c8)C7(C)C)cc6)CC5)CC4)cc31)C(=O)N(C1CCC(=O)NC1=O)C2=O (stereo partly shown) [Compound 16] | > 100 nM
15 | – | CCn1c2c(c3ccc(N4CCN(CC5CCN(c6ccc(C(=O)N[C@H]7CC[C@H](Oc8ccc(C#N)c(Cl)c8)CC7)nn6)C5)CC4)cc31)C(=O)N(C1CCC(=O)NC1=O)C2=O (stereo partly shown) [Compound 17] | 10 to 25 nM
16 | – | CCn1c2c(c3ccc(C4CCN(CC5CCN(c6ccc(C(=O)N[C@H]7CC[C@H](Oc8ccc(C#N)c(Cl)c8)CC7)nn6)C5)CC4)cc31)C(=O)N(C1CCC(=O)NC1=O)C2=O (stereo partly shown) [Compound 18] | 10 to 25 nM
17 | < 10 nM | Cn1c2c(c3ccc(N4CCN(CC5CCN(c6ccc(C(=O)N[C@H]7CC[C@H](Oc8ccc(C#N)c(Cl)c8)CC7)nn6)CC5)CC4)cc31)C(=O)N(C1CCC(=O)NC1=O)C2=O (stereo partly shown) [Compound 21] | –
18 | 10 to 25 nM | Cn1c2c(c3ccc(N4CCN(CC5CCN(c6ccc(C(=O)N[C@H]7CC[C@@H](Oc8ccc(C#N)c(Cl)c8)CC7)nn6)CC5)CC4)cc31)C(=O)N(C1CCC(=O)NC1=O)C2=O (stereo partly shown) [Compound 22] | –
19 | – | CCn1c2c(c3ccc(N4CCN(CC5CCN(c6ccc(C(=O)N[C@H]7CC[C@H](Oc8ccc(C#N)c(Cl)c8)CC7)nn6)CC5)CC4)cc31)C(=O)N(C1CCC(=O)NC1=O)C2=O (stereo partly shown) [Compound 23] | 10 to 25 nM

Row | DC50 [1] | SMILES | DC50 [2]
20 | – | CCn1c2c(c3ccc(C4CCN(CC5CCN(c6ccc(C(=O)N[C@H]7C(C)(C)[C@H](Oc8ccc(C#N)c(Cl)c8)C7(C)C)cc6)CC5)CC4)cc31)C(=O)N(C1CCC(=O)NC1=O)C2=O (stereo partly shown) [Compound 24] | 25 to 100 nM
21 | – | CCn1c2c(c3ccc(N4CCN(CC5CCN(c6ncc(C(=O)N[C@H]7CC[C@H](Oc8ccc(C#N)c(Cl)c8)CC7)cn6)CC5)CC4)cc31)C(=O)N(C1CCC(=O)NC1=O)C2=O (stereo partly shown) [Compound 25] | 10 to 25 nM
22 | – | CCn1c2c(c3ccc(N4CCN(CC5CCN(c6ncc(C(=O)N[C@H]7CC[C@@H](Oc8ccc(C#N)c(Cl)c8)CC7)cn6)CC5)CC4)cc31)C(=O)N(C1CCC(=O)NC1=O)C2=O (stereo partly shown) [Compound 26] | > 100 nM
23 | 10 to 25 nM | Cn1c2c(c3ccc(N4CCN(CC5CCN(c6ccc(C(=O)N[C@H]7C(C)(C)[C@H](Oc8ccc(C#N)c(Cl)c8)C7(C)C)cn6)CC5)CC4)cc31)C(=O)N(C1CCC(=O)NC1=O)C2=O (stereo partly shown) [Compound 27] | –
24 | 25 to 100 nM | Cn1c2c(c3ccc(N4CCN(CC5CCN(c6ccc(C(=O)N[C@H]7C(C)(C)[C@@H](Oc8ccc(C#N)c(Cl)c8)C7(C)C)cn6)CC5)CC4)cc31)C(=O)N(C1CCC(=O)NC1=O)C2=O (stereo partly shown) [Compound 28] | –
25 | 10 to 25 nM | Cn1c2c(c3ccc(C4CCN(CC5CCN(c6ccc(C(=O)N[C@H]7CC[C@H](Oc8ccc(C#N)c(Cl)c8)CC7)nn6)CC5)CC4)cc31)C(=O)N(C1CCC(=O)NC1=O)C2=O (stereo partly shown) [Compound 29] | –
26 | < 10 nM | Cn1c2c(c3ccc(C4CCN(CC5CCN(c6ccc(C(=O)N[C@H]7CC[C@@H](Oc8ccc(C#N)c(Cl)c8)CC7)nn6)CC5)CC4)cc31)C(=O)N(C1CCC(=O)NC1=O)C2=O (stereo partly shown) [Compound 30] | –
27 | – | CCn1c2c(c3ccc(N4CCN(CC5CCN(c6ccc(C(=O)N[C@H]7CC[C@@H](Oc8ccc(C#N)c(Cl)c8)CC7)nn6)CC5)CC4)cc31)C(=O)N(C1CCC(=O)NC1=O)C2=O (stereo partly shown) [Compound 33] | < 10 nM
28 | 10 to 25 nM | Cn1c2c(c3ccc(C4CCN(CC5CCN(c6ccc(C(=O)N[C@H]7CC[C@H](Oc8ccc(C#N)c(Cl)c8)CC7)nn6)C5)CC4)cc31)C(=O)N(C1CCC(=O)NC1=O)C2=O (stereo partly shown) [Compound 34] | –
29 | 10 to 25 nM | Cn1c2c(c3ccc(N4CCN(CC5CCN(c6ncc(C(=O)N[C@H]7CC[C@H](Oc8ccc(C#N)c(Cl)c8)CC7)cn6)CC5)CC4)cc31)C(=O)N(C1CCC(=O)NC1=O)C2=O (stereo partly shown) [Compound 35] | –
30 | – | CCn1c2c(c3ccc(N4CCN(CC5CCN(c6ccc(C(=O)N[C@H]7CC[C@H](Oc8ccc(C#N)c(Cl)c8)CC7)nn6)CC5)CC4)cc31)C(=O)N([C@H]1CCC(=O)NC1=O)C2=O [Compound 36] | 10 to 25 nM
31 | – | CCn1c2c(c3ccc(N4CCN(CC5CCN(c6ccc(C(=O)N[C@H]7CC[C@@H](Oc8ccc(C#N)c(Cl)c8)CC7)nn6)CC5)CC4)cc31)C(=O)N([C@H]1CCC(=O)NC1=O)C2=O [Compound 39] | 10 to 25 nM
32 | – | CCn1c2c(c3ccc(N4CCC(CN5CCC(c6ccc(C(=O)N[C@H]7CC[C@H](Oc8ccc(C#N)c(Cl)c8)CC7)nn6)CC5)CC4)cc31)C(=O)N(C1CCC(=O)NC1=O)C2=O (stereo partly shown) [Compound 40] | 10 to 25 nM
33 | > 100 nM | Cn1c2c(c3cc(N4CCN(CC5CCN(c6ccc(C(=O)N[C@H]7CC[C@H](Oc8ccc(C#N)c(Cl)c8)CC7)nn6)CC5)CC4)ccc31)C(=O)N(C1CCC(=O)NC1=O)C2=O (stereo partly shown) [Compound 41] | –
34 | 25 to 100 nM | Cn1c2c(c3cc(N4CCN(CC5CCN(c6ccc(C(=O)N[C@H]7CC[C@@H](Oc8ccc(C#N)c(Cl)c8)CC7)nn6)CC5)CC4)ccc31)C(=O)N(C1CCC(=O)NC1=O)C2=O (stereo partly shown) [Compound 42] | –
35 | 25 to 100 nM | Cn1c2c(c3cc(N4CCN(CC5CN(c6ccc(C(=O)N[C@H]7CC[C@H](Oc8ccc(C#N)c(Cl)c8)CC7)nn6)C5)CC4)ccc31)C(=O)N(C1CCC(=O)NC1=O)C2=O (stereo partly shown) [Compound 47] | –
36 | – | CCn1c2c(c3ccc(C4=CCN(CC5CCN(c6ccc(C(=O)N[C@H]7CC[C@H](Oc8ccc(C#N)c(Cl)c8)CC7)nn6)CC5)CC4)cc31)C(=O)N(C1CCC(=O)NC1=O)C2=O (stereo partly shown) [Compound 48] | 10 to 25 nM
37 | – | CCn1c2c(c3ccc(N4CCC5(CC4)CN(CC4CCN(c6ccc(C(=O)N[C@H]7CC[C@H](Oc8ccc(C#N)c(Cl)c8)CC7)nn6)CC4)C5)cc31)C(=O)N(C1CCC(=O)NC1=O)C2=O (stereo partly shown) [Compound 51] | < 10 nM

Reference: patent publication US20260248926A1, “BIFUNCTIONAL COMPOUND AND PHARMACEUTICAL COMPOSITION COMPRISING THE BIFUNCTIONAL COMPOUND, AND METHOD FOR TREATING ANDROGEN RECEPTOR RELATED DISEASE BY USING THE SAME” (ANHORN MEDICINES CO., LTD., priority 2022, published 2026)
